We go through 11 compounds from PubChem BioAssay (NCI).

Values joined by “and” are separate entries in the source; they are usually repeats but may differ in a detail not shown here. Equal entries are not always repeated.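 How tested: cells in 96-well plates exposed to compound for 48 hours at five concentrations. The concentration for 50% growth inhibition is given as GI50. TGI denotes the concentration required for complete inhibition of growth.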 Bounds are passed on as bounds.

Test in all cases: inhibition of tumour cell growth, NCI panel, 48 h
The subject of experiment [1] is LOX IMVI melanoma.
Experiment [2] has as its system TK-10 renal.
The test system of experiment [3] is SK-OV-3 ovarian.
Experiment [4] relates to RXF 393 renal.
In experiment [5] the test system is UO-31 renal.
For experiment [6], the system named is HCT-15 colon.
Experiment [7] concerns T-47D breast.
For experiment [8], the system named is UACC-257 melanoma.
Experiment [9] relates to M19-MEL melanoma.
The subject of experiment [10] is DMS 273 small cell lung.

As to `COc1ccc2c(c1)nnn1c3ncccc3c(N=O)c21`, the GI50 in experiment [1] is 0.799 µM and 0.552 µM; in experiment [2], 5.08 µM; in experiment [3], 1.68 µM and 2.94 µM; in experiment [4], 0.308 µM and 1.96 µM; in experiment [5], 0.0757 µM and 0.347 µM; in [6] it was 3.13 µM and 2.31 µM. Moreover, the GI50 in experiment [7] was 0.162 µM and 0.515 µM; in [8] it was 8.21 µM and 2.62 µM. Besides, the TGI in experiment [1] is 7.06 µM and 2.56 µM; in experiment [2], 19.2 µM; in experiment [3], 11.8 µM and 19.6 µM; in [4] it was 3.14 µM and 10.9 µM; in experiment [5], 0.732 µM and 4.64 µM; in [6] it was 50 µM and 11.8 µM. Moreover, the TGI is 2.36 µM and 7.9 µM in experiment [7]; 30.8 µM and 13.6 µM in [8].

As to `O=C(O)C1OC1(c1cccc(Cl)c1)c1ccccc1Cl` (stereo not drawn), the TGI in experiment [1] is 44 µM; in experiment [2] it was greater than 100 µM; in experiment [3], 66.8 µM; in [4], 82.1 µM; in [5], 58.5 µM; in experiment [6] it was 22.9 µM. Further, the figures for the TGI in experiment [7] and in experiment [8] were greater than 100 µM and 70.6 µM, respectively.

For `COc1cc2oc3cc(=O)cc4oc(-c5ccccc5)cc(c2c2c1CCC(c1ccccc1)O2)c43` (stereo not drawn), the TGI was greater than 100 µM in experiment [1]; 83.4 µM in experiment [2]; greater than 100 µM in [3]; greater than 100 µM in experiment [4]; greater than 100 µM in experiment [5]; 91.9 µM in experiment [6]. The values for the TGI in experiment [7] and in experiment [8] were 54.8 µM and 69 µM, respectively.

In the case of `CCN(Cc1ccc(F)cc1)c1ccc(CO)c(F)c1`, the GI50 in [1] is 13.9 µM; in [2], 0.625 µM; in experiment [3], 15.9 µM; in experiment [4], 5.47 µM; in experiment [5] it was 8.67 µM; in experiment [6] it was 10.4 µM. For the same compound, the GI50 is 1.35 µM in experiment [7] and 2.33 µM in experiment [8]. The TGI in experiment [1] is 31.2 µM; in [2], 3.07 µM; in experiment [3] it was 80.7 µM; in experiment [4], 25.9 µM; in experiment [5], 54.4 µM; in experiment [6], greater than 88.1 µM. Also, the TGI turned out to be 8.31 µM in [7] and 9.29 µM in [8].

As for `N#CCCN(CCCN(CCCN(C(=O)Nc1ccccc1)c1ccccc1)C(=O)Nc1ccccc1)C(=O)Nc1ccccc1`, the TGI in experiment [1] is greater than 100 µM; in [2] it was greater than 100 µM; in [3], greater than 100 µM; in experiment [4] it was greater than 100 µM; in experiment [5] it was greater than 8.75 µM; in [6], greater than 100 µM. Also, the TGI in experiment [7] and in experiment [8] was greater than 100 µM throughout. The GI50 in experiment [2], in [3], in experiment [4], in [7] and in [8] was greater than 100 µM each time.

For the compound `Nc1nc(N)c2nc(CNc3ccc(C(=O)NC(CC(=O)O)C(=O)O)cc3)cnc2n1` (stereo not drawn), the GI50 in experiment [1] was 0.16 µM; in experiment [2], 1.71 µM; in experiment [3], greater than 53.5 µM; in experiment [4], greater than 72.4 µM; in [5], 1.18 µM; in [6], 0.526 µM. Moreover, the GI50 in experiment [7] was greater than 65.6 µM; in [8] it was greater than 33.8 µM. In addition, the TGI in experiment [1] is greater than 100 µM; in experiment [2], greater than 100 µM; in [3], greater than 100 µM; in [4], greater than 100 µM; in experiment [5], greater than 35.9 µM; in [6], greater than 100 µM. Moreover, the TGI in [7] and in experiment [8] was greater than 100 µM each time.

On to `COc1ccc(C2CC(C)(O)Oc3cc4c(cc32)OCO4)cc1` (stereo not drawn), for which the TGI in experiment [1] is greater than 100 µM; in [2] it was greater than 100 µM; in experiment [3], greater than 100 µM; in experiment [4], greater than 39 µM; in experiment [5], greater than 100 µM; in [6] it was greater than 100 µM. The TGI in experiment [7] is greater than 50.5 µM; in [8], greater than 100 µM. Also, in experiment [3], the GI50 was 43.2 µM.

Regarding `O=C(Cn1c(=O)c(-c2ccccc2)nc2ccccc21)Nc1ccc(F)cc1`, the GI50 in experiment [1] is greater than 100 µM; in experiment [2], 85 µM; in experiment [3], 64.8 µM; in experiment [4] it was 35.5 µM; in [5], greater than 100 µM; in experiment [6], greater than 100 µM. In addition, the GI50 was 50.8 µM in experiment [7] and greater than 100 µM in experiment [8]. Besides, the TGI in [1], in experiment [2], in experiment [3], in [4], in [5] and in experiment [6] was greater than 100 µM in each case. Also, the TGI in experiment [7] and in experiment [8] was greater than 100 µM in each case.

Regarding `COc1ccc2c(c1)[n+]([O-])c(-c1ccc(OC)c(OC)c1)c(N)[n+]2[O-]`, the TGI in experiment [1], in [2], in experiment [3], in [9], in experiment [10] and in experiment [5] was greater than 100 µM each time. Also, the TGI in [6] and in experiment [8] was greater than 100 µM throughout.

For the compound `CCC1CN2C(=N1)c1ccccc1-c1cc(Cl)ccc12` (stereo not drawn), the GI50 was 1.81 µM in experiment [1]; 4.79 µM in experiment [2]; 4.27 µM in [3]; 3.5 µM in experiment [4]; 2.39 µM in experiment [5]; 2.86 µM in [6]. Moreover, the GI50 in [7] is 3.52 µM; in [8], 2.96 µM. The TGI turned out to be 4.44 µM in experiment [1]; 32.8 µM in experiment [2]; 24.6 µM in [3]; 15 µM in experiment [4]; 15.1 µM in experiment [5]; 11.5 µM in experiment [6]. Also, the figures for the TGI in experiment [7] and in [8] were 23 µM and 10.3 µM, respectively.

On to `OCC1C(/C=C/c2ccoc2)ON2CCCC12` (stereo not drawn), for which the TGI in [1], in experiment [2], in [9], in experiment [10], in experiment [4] and in experiment [5] was greater than 100 µM in each case. For the same compound, the TGI in experiment [8] was greater than 100 µM.
